# In patent US20020111274A1, “1-alkyl-3-[1-(substituted phenyl) benzotriazol-6-yl] uracils” (BASF Aktiengesellschaft, priority 2000, published 2002):
# Columns and labels:
# Design in all cases: scale not given here
# [1] = system: ZEAMX Corn, Field; experiment: Postemergence herbicidal evaluation, ZEAMX; type: in vivo, Zea mays, L. (Sammel-Bezeichnung); conditions: postemergence spray, rated about two-three weeks after treatment
# Summary of the method: (§1)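 For this test, compound in an 80/20 acetone/water vehicle with 1.0% seed oil was sprayed over two-week-old seedlings at about 0.006 to 0.400 kg per hectare. Injury was assessed visually two to three weeks on.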
# [2] = system: SETVI Foxtail, Green; experiment: Postemergence herbicidal evaluation, SETVI; type: in vivo, Setaria viridis, (L.) Beau; conditions: postemergence spray, rated about two-three weeks after treatment
# Summary of the method: as §1
# [3] = system: GALAP Galium; experiment: Preemergence herbicidal evaluation, GALAP; type: in vivo, Galium aparine; conditions: preemergence
# Summary of the method: (§2)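 Seeds mixed with potting soil were planted on about one inch of soil in cups, then sprayed with the test compound in aqueous acetone at roughly 0.013 to 0.800 kg per hectare. Plants were kept under standard greenhouse care and injury was rated four to five weeks after treatment.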
# [4] = system: AMBEL Ragweed, Common; experiment: Preemergence herbicidal evaluation, AMBEL; type: in vivo, Ambrosia artemisifolia, L.; conditions: preemergence
# Summary of the method: as §2
# [5] = system: TRZAWR Wheat, Winter, cv Riband; experiment: Preemergence herbicidal evaluation, TRZAWR; type: in vivo, Triticum aestivum; conditions: preemergence
# Summary of the method: as §2
# [6] = system: GALAP Galium; experiment: Postemergence herbicidal evaluation, GALAP; type: in vivo, Galium aparine; conditions: postemergence spray, rated about two-three weeks after treatment
# Summary of the method: as §1
# [7] = system: TRZAWR Wheat, Winter, cv Riband; experiment: Postemergence herbicidal evaluation, TRZAWR; type: in vivo, Triticum aestivum; conditions: postemergence spray, rated about two-three weeks after treatment
# Summary of the method: as §1
# [8] = system: ECHOG Barnyardgrass; experiment: Preemergence herbicidal evaluation, ECHOG; type: in vivo, Echinochloa crus-galli, (L.) Beau; conditions: preemergence
# Summary of the method: as §2
# [9] = system: ABUTH Velvetleaf; experiment: Preemergence herbicidal evaluation, ABUTH; type: in vivo, Abutilon theophrasti, Medic.; conditions: preemergence
# Summary of the method: as §2
# [10] = system: CHEAL Lambsquarters, Common; experiment: Postemergence herbicidal evaluation, CHEAL; type: in vivo, Chenopodium album, L.; conditions: postemergence spray, rated about two-three weeks after treatment
# Summary of the method: as §1
# [11] = system: AMBEL Ragweed, Common; experiment: Postemergence herbicidal evaluation, AMBEL; type: in vivo, Ambrosia artemisifolia, L.; conditions: postemergence spray, rated about two-three weeks after treatment
# Summary of the method: as §1
# [12] = system: ORYSAT Rice, Tebonnet; experiment: Preemergence herbicidal evaluation, ORYSAT; type: in vivo, Oryza sativa, (L.); conditions: preemergence
# Summary of the method: as §2
# [13] = system: GLXMAW Soybean, Williams; experiment: Postemergence herbicidal evaluation, GLXMAW; type: in vivo, Glycine max, (L.) Merr. cv Williams; conditions: postemergence spray, rated about two-three weeks after treatment
# Summary of the method: as §1
# [14] = system: ORYSAT Rice, Tebonnet; experiment: Postemergence herbicidal evaluation, ORYSAT; type: in vivo, Oryza sativa, (L.); conditions: postemergence spray, rated about two-three weeks after treatment
# Summary of the method: as §1
# [15] = system: CASOB Sicklepod; experiment: Preemergence herbicidal evaluation, CASOB; type: in vivo, Cassia obtusifolia, L.; conditions: preemergence
# Summary of the method: as §2
# [16] = system: GLXMAW Soybean, Williams; experiment: Preemergence herbicidal evaluation, GLXMAW; type: in vivo, Glycine max, (L.) Merr. cv Williams; conditions: preemergence
# Summary of the method: as §2
# [17] = system: SETVI Foxtail, Green; experiment: Preemergence herbicidal evaluation, SETVI; type: in vivo, Setaria viridis, (L.) Beau; conditions: preemergence
# Summary of the method: as §2
# [18] = system: IPOHE Morningglory, Ivyleaf; experiment: Postemergence herbicidal evaluation, IPOHE; type: in vivo, Ipomoea hederacea, (L.) Jacq.; conditions: postemergence spray, rated about two-three weeks after treatment
# Summary of the method: as §1
# [19] = system: ZEAMX Corn, Field; experiment: Preemergence herbicidal evaluation, ZEAMX; type: in vivo, Zea mays, L. (Sammel-Bezeichnung); conditions: preemergence
# Summary of the method: as §2
# [20] = system: CASOB Sicklepod; experiment: Postemergence herbicidal evaluation, CASOB; type: in vivo, Cassia obtusifolia, L.; conditions: postemergence spray, rated about two-three weeks after treatment
# Summary of the method: as §1
# [21] = system: CHEAL Lambsquarters, Common; experiment: Preemergence herbicidal evaluation, CHEAL; type: in vivo, Chenopodium album, L.; conditions: preemergence
# Summary of the method: as §2
# [22] = system: ECHOG Barnyardgrass; experiment: Postemergence herbicidal evaluation, ECHOG; type: in vivo, Echinochloa crus-galli, (L.) Beau; conditions: postemergence spray, rated about two-three weeks after treatment
# Summary of the method: as §1
# [23] = system: ABUTH Velvetleaf; experiment: Postemergence herbicidal evaluation, ABUTH; type: in vivo, Abutilon theophrasti, Medic.; conditions: postemergence spray, rated about two-three weeks after treatment
# Summary of the method: as §1
# [24] = system: IPOHE Morningglory, Ivyleaf; experiment: Preemergence herbicidal evaluation, IPOHE; type: in vivo, Ipomoea hederacea, (L.) Jacq.; conditions: preemergence
# Summary of the method: as §2
compound,measurement,setting,value
C#CCOC(=O)COc1ccc(C)cc1-n1nnc2cc(F)c(-n3c(=O)cc(C(F)(F)F)n(C)c3=O)cc21 [Example 40],Postemergence herbicidal rating ZEAMX,[1]; 0.008 kg/ha,5.0
same,Postemergence herbicidal rating ZEAMX,[1]; 0.016 kg/ha,7.5
same,Postemergence herbicidal rating ZEAMX,[1]; 0.032 kg/ha,7.5
same,Postemergence herbicidal rating ZEAMX,[1]; 0.062 kg/ha,8.5
same,Postemergence herbicidal rating SETVI,[2]; 0.008 kg/ha,6.0
same,Postemergence herbicidal rating SETVI,[2]; 0.016 kg/ha,9.0
same,Postemergence herbicidal rating SETVI,[2]; 0.032 kg/ha,9.0
same,Postemergence herbicidal rating SETVI,[2]; 0.062 kg/ha,9.0
same,GALAP herbicidal rating,[3]; rate 0.032 kg/ha,0.0
same,GALAP herbicidal rating,[3]; rate 0.062 kg/ha,7.0
same,GALAP herbicidal rating,[3]; rate 0.125 kg/ha,9.0
same,AMBEL herbicidal rating,[4]; rate 0.016 kg/ha,0.0
same,AMBEL herbicidal rating,[4]; rate 0.032 kg/ha,4.0
same,AMBEL herbicidal rating,[4]; rate 0.062 kg/ha,3.0
same,AMBEL herbicidal rating,[4]; rate 0.125 kg/ha,4.0
same,TRZAWR herbicidal rating,[5]; rate 0.016 kg/ha,0.0
same,TRZAWR herbicidal rating,[5]; rate 0.032 kg/ha,0.0
same,TRZAWR herbicidal rating,[5]; rate 0.062 kg/ha,0.0
same,TRZAWR herbicidal rating,[5]; rate 0.125 kg/ha,2.0
same,Postemergence herbicidal rating GALAP,[6]; 0.008 kg/ha,1.0
same,Postemergence herbicidal rating GALAP,[6]; 0.016 kg/ha,2.0
same,Postemergence herbicidal rating GALAP,[6]; 0.032 kg/ha,2.0
same,Postemergence herbicidal rating GALAP,[6]; 0.062 kg/ha,5.0
same,Postemergence herbicidal rating TRZAWR,[7]; 0.008 kg/ha,4.0
same,Postemergence herbicidal rating TRZAWR,[7]; 0.016 kg/ha,5.0
same,Postemergence herbicidal rating TRZAWR,[7]; 0.032 kg/ha,5.5
same,Postemergence herbicidal rating TRZAWR,[7]; 0.062 kg/ha,6.5
same,ECHCG herbicidal rating,[8]; rate 0.016 kg/ha,0.0
same,ECHCG herbicidal rating,[8]; rate 0.032 kg/ha,0.0
same,ECHCG herbicidal rating,[8]; rate 0.062 kg/ha,0.0
same,ECHCG herbicidal rating,[8]; rate 0.125 kg/ha,4.0
same,ABUTH herbicidal rating,[9]; rate 0.016 kg/ha,1.0
same,ABUTH herbicidal rating,[9]; rate 0.032 kg/ha,9.0
same,ABUTH herbicidal rating,[9]; rate 0.062 kg/ha,9.0
same,ABUTH herbicidal rating,[9]; rate 0.125 kg/ha,9.0
same,Postemergence herbicidal rating CHEAL,[10]; 0.008 kg/ha,4.0
same,Postemergence herbicidal rating CHEAL,[10]; 0.016 kg/ha,3.0
same,Postemergence herbicidal rating CHEAL,[10]; 0.032 kg/ha,7.0
same,Postemergence herbicidal rating CHEAL,[10]; 0.062 kg/ha,9.0
same,Postemergence herbicidal rating AMBEL,[11]; 0.008 kg/ha,9.0
same,Postemergence herbicidal rating AMBEL,[11]; 0.016 kg/ha,7.0
same,Postemergence herbicidal rating AMBEL,[11]; 0.032 kg/ha,9.0
same,Postemergence herbicidal rating AMBEL,[11]; 0.062 kg/ha,7.0
same,ORYSAT herbicidal rating,[12]; rate 0.016 kg/ha,0.0
same,ORYSAT herbicidal rating,[12]; rate 0.032 kg/ha,0.0
same,ORYSAT herbicidal rating,[12]; rate 0.062 kg/ha,0.0
same,ORYSAT herbicidal rating,[12]; rate 0.125 kg/ha,2.0
same,Postemergence herbicidal rating GLXMAW,[13]; 0.008 kg/ha,5.5
same,Postemergence herbicidal rating GLXMAW,[13]; 0.016 kg/ha,6.0
same,Postemergence herbicidal rating GLXMAW,[13]; 0.032 kg/ha,6.5
same,Postemergence herbicidal rating GLXMAW,[13]; 0.062 kg/ha,7.0
same,Postemergence herbicidal rating ORYSAT,[14]; 0.008 kg/ha,4.0
same,Postemergence herbicidal rating ORYSAT,[14]; 0.016 kg/ha,5.0
same,Postemergence herbicidal rating ORYSAT,[14]; 0.032 kg/ha,5.0
same,Postemergence herbicidal rating ORYSAT,[14]; 0.062 kg/ha,6.5
same,CASOB herbicidal rating,[15]; rate 0.016 kg/ha,0.0
same,CASOB herbicidal rating,[15]; rate 0.032 kg/ha,4.0
same,CASOB herbicidal rating,[15]; rate 0.062 kg/ha,3.0
same,CASOB herbicidal rating,[15]; rate 0.125 kg/ha,4.0
same,GLXMAW herbicidal rating,[16]; rate 0.016 kg/ha,0.0
same,GLXMAW herbicidal rating,[16]; rate 0.032 kg/ha,0.0
same,GLXMAW herbicidal rating,[16]; rate 0.062 kg/ha,1.0
same,GLXMAW herbicidal rating,[16]; rate 0.125 kg/ha,0.0
same,SETVI herbicidal rating,[17]; rate 0.016 kg/ha,0.0
same,SETVI herbicidal rating,[17]; rate 0.032 kg/ha,4.0
same,SETVI herbicidal rating,[17]; rate 0.062 kg/ha,5.0
same,SETVI herbicidal rating,[17]; rate 0.125 kg/ha,6.0
same,Postemergence herbicidal rating IPOHE,[18]; 0.008 kg/ha,9.0
same,Postemergence herbicidal rating IPOHE,[18]; 0.016 kg/ha,9.0
same,Postemergence herbicidal rating IPOHE,[18]; 0.032 kg/ha,9.0
same,Postemergence herbicidal rating IPOHE,[18]; 0.062 kg/ha,9.0
same,ZEAMX herbicidal rating,[19]; rate 0.016 kg/ha,0.0
same,ZEAMX herbicidal rating,[19]; rate 0.032 kg/ha,0.0
same,ZEAMX herbicidal rating,[19]; rate 0.062 kg/ha,1.0
same,ZEAMX herbicidal rating,[19]; rate 0.125 kg/ha,1.0
same,Postemergence herbicidal rating CASOB,[20]; 0.008 kg/ha,1.0
same,Postemergence herbicidal rating CASOB,[20]; 0.016 kg/ha,1.0
same,Postemergence herbicidal rating CASOB,[20]; 0.032 kg/ha,3.0
same,Postemergence herbicidal rating CASOB,[20]; 0.062 kg/ha,6.0
same,CHEAL herbicidal rating,[21]; rate 0.016 kg/ha,9.0
same,CHEAL herbicidal rating,[21]; rate 0.032 kg/ha,9.0
same,CHEAL herbicidal rating,[21]; rate 0.062 kg/ha,9.0
same,CHEAL herbicidal rating,[21]; rate 0.125 kg/ha,9.0
same,Postemergence herbicidal rating ECHCG,[22]; 0.008 kg/ha,4.0
same,Postemergence herbicidal rating ECHCG,[22]; 0.016 kg/ha,9.0
same,Postemergence herbicidal rating ECHCG,[22]; 0.032 kg/ha,9.0
same,Postemergence herbicidal rating ECHCG,[22]; 0.062 kg/ha,9.0
same,Postemergence herbicidal rating ABUTH,[23]; 0.008 kg/ha,9.0
same,Postemergence herbicidal rating ABUTH,[23]; 0.016 kg/ha,9.0
same,Postemergence herbicidal rating ABUTH,[23]; 0.032 kg/ha,9.0
same,Postemergence herbicidal rating ABUTH,[23]; 0.062 kg/ha,9.0
same,IPOHE herbicidal rating,[24]; rate 0.016 kg/ha,0.0
same,IPOHE herbicidal rating,[24]; rate 0.032 kg/ha,1.0
same,IPOHE herbicidal rating,[24]; rate 0.062 kg/ha,3.0
same,IPOHE herbicidal rating,[24]; rate 0.125 kg/ha,9.0
